Assay results reported in ChEMBL document CHEMBL1128133, “Synthesis and binding affinity of 2,3,3a,4,9,9a-hexahydro-9,4-(iminomethano)-1H-benz[f]indenes. Ligands for the PCP site of the NMDA receptor” (Bioorg Med Chem Lett, 1995).

Test: Binding affinity against PCP site of the NMDA Receptor using [3H]TCP radioligand

Compound | Ki
Nc1cccc2c1C1CNC2C2CCCC12 (stereo not given) | 14 nM
C[C@H]1NC2c3cccc(N)c3C1C1CCCC21 (stereo not given in full) | 8 nM
C[C@]12N[C@H](Cc3ccccc31)c1ccccc12 [DIZOCILPINE] | 2.2 nM
C[C@@H]1NC2c3cccc(N)c3C1C1CCCC21 (stereo in doubt; 12a) | 89 nM
CN1CC2c3c(N)cccc3C1C1C=CCC21 (stereo not given) | 701 nM
C[C@@H]1NC2c3cccc(N)c3C1C1CCCC21 (stereo in doubt; 13) | 1200 nM
c1ccc2c(c1)C1CNC2C2CCCC12 (stereo not given) | 52 nM
CN1CC2c3ccccc3C1C1CCCC21 (stereo not given) | 1140 nM
CN1CC2c3c(N)cccc3C1C1CCCC21 (stereo not given) | 226 nM
Oc1cccc(C2(N3CCCCC3)CCCCC2)c1 | 38 nM
